Literature values as cited in patent publication US8633150B2, “Methods for inducing sustained immune response” (TNI Biotech, Inc., priority 2001, dated 2014).
Like-named read-outs stand apart in the source and are kept apart here.

How the values were obtained:
[1] = Bihari
[2] = normal volunteers, HIV positive, and cancer patients; Plotnikoff, et al., 1997

For CSCC[C@H](NC(=O)[C@H](Cc1ccccc1)NC(=O)CNC(=O)CNC(=O)[C@@H](N)Cc1ccc(O)cc1)C(=O)O [met-enkephalin, methionine enkephalin], the half-life in plasma ([1]; et al., 1991) is given as “approximately 2 minutes”, the half-life in plasma ([1]; et al., 1991, listed as Met-enkelphalin) is given as “approximately two” and the “toxicity in clinical studies” value [2] is given as “no major toxicity”.
